Test results: ChEMBL document CHEMBL1201862, “PubChem BioAssay data set” (2004)
The source made the active and inactive calls. Rule as the data show it, for most assays here: actives have a measured IC50 and inactives only a lower limit.

What was measured:
[1] = HeLa cell cytotoxicity, dose response, cytotoxicity control for MgcRacGAP inhibitor project (AID 624300); format: functional
[2] = biological target: T1, Apoptotic protease-activating factor 1 (Homo sapiens, UniProt O14727); format: functional
T1 sequence (O14727 whole entry): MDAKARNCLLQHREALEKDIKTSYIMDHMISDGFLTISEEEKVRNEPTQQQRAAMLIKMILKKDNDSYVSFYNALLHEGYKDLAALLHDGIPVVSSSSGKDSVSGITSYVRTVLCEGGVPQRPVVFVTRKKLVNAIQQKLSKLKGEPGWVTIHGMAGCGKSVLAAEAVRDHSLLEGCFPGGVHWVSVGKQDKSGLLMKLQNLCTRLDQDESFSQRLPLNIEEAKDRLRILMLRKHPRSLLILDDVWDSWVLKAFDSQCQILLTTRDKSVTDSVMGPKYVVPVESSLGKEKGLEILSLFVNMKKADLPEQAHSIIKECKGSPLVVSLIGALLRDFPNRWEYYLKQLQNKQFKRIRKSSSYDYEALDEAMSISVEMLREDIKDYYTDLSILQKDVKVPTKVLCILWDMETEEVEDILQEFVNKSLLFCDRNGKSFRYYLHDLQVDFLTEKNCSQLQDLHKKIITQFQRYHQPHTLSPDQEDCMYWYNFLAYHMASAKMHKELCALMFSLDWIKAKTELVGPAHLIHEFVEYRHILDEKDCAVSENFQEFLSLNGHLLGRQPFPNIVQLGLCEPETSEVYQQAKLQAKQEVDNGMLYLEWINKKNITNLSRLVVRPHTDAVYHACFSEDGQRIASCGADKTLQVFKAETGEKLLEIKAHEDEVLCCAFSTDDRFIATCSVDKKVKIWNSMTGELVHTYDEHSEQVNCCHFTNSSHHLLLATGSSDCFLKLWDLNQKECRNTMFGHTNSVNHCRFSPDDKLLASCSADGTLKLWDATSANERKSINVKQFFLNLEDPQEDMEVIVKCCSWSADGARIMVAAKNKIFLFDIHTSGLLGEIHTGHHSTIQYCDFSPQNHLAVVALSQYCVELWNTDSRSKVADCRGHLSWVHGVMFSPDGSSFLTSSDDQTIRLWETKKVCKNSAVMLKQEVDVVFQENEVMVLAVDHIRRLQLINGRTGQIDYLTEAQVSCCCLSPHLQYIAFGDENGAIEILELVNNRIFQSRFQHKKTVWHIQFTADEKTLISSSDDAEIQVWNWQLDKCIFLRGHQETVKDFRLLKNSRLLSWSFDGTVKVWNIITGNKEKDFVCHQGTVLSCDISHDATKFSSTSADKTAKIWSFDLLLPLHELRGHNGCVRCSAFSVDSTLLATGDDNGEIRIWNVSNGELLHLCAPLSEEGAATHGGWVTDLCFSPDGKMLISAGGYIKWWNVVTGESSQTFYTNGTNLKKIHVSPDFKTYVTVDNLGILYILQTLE

[3] = biological target: T2, Tyrosyl-DNA phosphodiesterase 2 (Homo sapiens, UniProt O95551); assay: human TDP2 enzyme inhibitors, dose response, biochemical, epi absorbance, IC50 (AID 743297)
T2 sequence (O95551 whole entry): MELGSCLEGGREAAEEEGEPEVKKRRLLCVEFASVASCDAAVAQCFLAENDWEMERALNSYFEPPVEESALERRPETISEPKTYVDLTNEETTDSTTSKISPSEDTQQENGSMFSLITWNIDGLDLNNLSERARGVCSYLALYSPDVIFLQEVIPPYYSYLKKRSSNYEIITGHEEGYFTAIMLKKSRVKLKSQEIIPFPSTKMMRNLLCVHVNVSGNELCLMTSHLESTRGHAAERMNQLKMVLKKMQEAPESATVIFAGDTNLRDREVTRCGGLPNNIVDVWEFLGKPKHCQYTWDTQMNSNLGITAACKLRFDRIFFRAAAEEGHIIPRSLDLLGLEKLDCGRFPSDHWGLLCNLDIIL

[4] = biological target: T3, Sentrin-specific protease 7 (Homo sapiens, UniProt Q9BQF6); format: functional;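 also: Luminescence-based dose-response confirmation of ultra-high-throughput screening hits, measuring inhibition of SENP7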
T3 sequence (Q9BQF6 whole entry): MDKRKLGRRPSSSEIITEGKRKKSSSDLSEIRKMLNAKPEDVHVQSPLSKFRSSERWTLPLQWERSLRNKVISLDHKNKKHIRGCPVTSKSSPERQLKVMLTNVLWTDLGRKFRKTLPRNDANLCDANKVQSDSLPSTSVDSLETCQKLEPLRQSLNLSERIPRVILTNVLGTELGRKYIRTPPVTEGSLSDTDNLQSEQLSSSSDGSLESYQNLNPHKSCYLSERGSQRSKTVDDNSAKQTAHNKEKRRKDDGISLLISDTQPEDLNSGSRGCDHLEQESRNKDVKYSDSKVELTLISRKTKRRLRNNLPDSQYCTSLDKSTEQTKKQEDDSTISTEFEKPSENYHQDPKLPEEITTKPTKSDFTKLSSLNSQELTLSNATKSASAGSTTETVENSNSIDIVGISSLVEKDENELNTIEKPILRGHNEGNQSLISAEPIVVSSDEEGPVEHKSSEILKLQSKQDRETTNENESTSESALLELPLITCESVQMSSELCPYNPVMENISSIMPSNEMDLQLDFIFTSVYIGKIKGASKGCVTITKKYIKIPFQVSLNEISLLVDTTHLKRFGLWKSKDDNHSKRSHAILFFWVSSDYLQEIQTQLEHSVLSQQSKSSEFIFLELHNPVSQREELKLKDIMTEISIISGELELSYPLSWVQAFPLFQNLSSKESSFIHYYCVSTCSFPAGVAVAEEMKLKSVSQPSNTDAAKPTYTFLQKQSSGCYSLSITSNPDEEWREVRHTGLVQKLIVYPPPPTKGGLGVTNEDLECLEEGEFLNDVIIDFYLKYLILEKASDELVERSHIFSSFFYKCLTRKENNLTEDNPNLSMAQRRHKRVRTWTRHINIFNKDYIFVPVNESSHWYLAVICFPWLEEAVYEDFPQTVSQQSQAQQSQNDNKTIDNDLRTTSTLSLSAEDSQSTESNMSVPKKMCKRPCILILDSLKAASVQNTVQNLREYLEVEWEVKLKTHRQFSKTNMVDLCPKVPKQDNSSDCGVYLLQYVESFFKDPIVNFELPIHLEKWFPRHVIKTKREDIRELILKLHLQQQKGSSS

[5] = biological target: T4, Sentrin-specific protease 8 (Homo sapiens, UniProt Q96LD8); format: functional;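 also: luminescence read-out of SENP8 inhibition, dose-response confirmation following an ultra-high-throughput screen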
T4 sequence (Q96LD8 whole entry): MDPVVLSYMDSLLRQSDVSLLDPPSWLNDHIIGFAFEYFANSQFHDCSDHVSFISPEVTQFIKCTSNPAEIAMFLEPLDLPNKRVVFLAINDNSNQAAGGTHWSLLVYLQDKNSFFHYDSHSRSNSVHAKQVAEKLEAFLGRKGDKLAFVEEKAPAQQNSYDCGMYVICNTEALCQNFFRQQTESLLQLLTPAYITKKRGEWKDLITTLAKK

IC50 [2] | IC50 [3] | IC50 [4] | Structure (SMILES) | CC50 [1] | IC50 [5]
– | – | – | O=[N+]([O-])c1ccc(N/N=C/c2ccc[nH]2)cc1 | 100 µM (active) | –
4.46 µM (active) | 6.48 µM (active) | 13.8 µM (active) | CC(=O)N(/N=C1\Sc2ccccc2C1=O)c1cccc(C)c1 | – | 11.7 µM (active)
